Reference: US12291518B2, “Thyroid hormone receptor agonists and use thereof” (Eccogene Inc., priority 2020, dated 2025)

Experiments:
THR beta-LBD = target: T1, THR beta-LBD (Homo sapiens, UniProt P10828); test: THR-β Coactivator Peptide Recruitment Assay (LanthaScreen TR-FRET); assay type: biochemical; settings: TR-FRET coactivator recruitment, THR beta-LBD 0.5 nM; for EC50: read-out: THRβ EC50
T1 construct: THR beta-LBD (the final concentration is 0.5 nM) was added to the 384-well assay plate; purchased Invitrogen PV4686
T1 sequence (P10828 217-461 limits assumed): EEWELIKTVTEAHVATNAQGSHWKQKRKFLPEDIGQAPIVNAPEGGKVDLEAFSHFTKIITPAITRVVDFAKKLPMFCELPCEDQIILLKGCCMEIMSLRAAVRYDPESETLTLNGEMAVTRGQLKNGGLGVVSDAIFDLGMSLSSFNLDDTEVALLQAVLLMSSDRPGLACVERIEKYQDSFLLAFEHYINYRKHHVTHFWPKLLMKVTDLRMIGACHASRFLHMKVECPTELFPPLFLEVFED
Outline: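 GST-tagged THR beta-LBD (0.5 nM) with test compound recruits fluorescein-SRC2-2 coactivator peptide (0.1 nM), detected with Tb-anti-GST antibody (2 nM).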

THR alpha-LBD = target: T2, THR alpha-LBD (Homo sapiens, UniProt P10827); test: THR-α Coactivator Peptide Recruitment Assay (LanthaScreen TR-FRET); assay type: biochemical; settings: TR-FRET coactivator recruitment, THR alpha-LBD 0.25 nM; for EC50: read-out: THRα EC50
T2 construct: except that THR alpha-LBD of a final concentration 0.25 nM was used; purchased Invitrogen PV4687
Outline: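 TR-FRET coactivator recruitment with THR alpha-LBD at 0.25 nM final, Fluorescein-SRC2-2 peptide 0.1 nM and Tb-labeled anti-GST antibody 2 nM; 2 h incubation at room temperature. 520/495 nm emission ratio fitted to a four-parameter sigmoidal curve to give EC50.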

DIO1 mRNA in liver = test: Pharmacodynamics in PTU induced hypothyroidism SD rat model: liver DIO1 mRNA; assay type: in vivo; settings: PTU induced hypothyroidism SD rats, single dose, mRNA at 24h; *Assumed Emax; T3 i.p. 0.12 mg/kg
Procedure: Thyroid hormones (THs) affect growth, metabolism, and the physiological function of nearly all organs. Biological activity arises from activation of nuclear hormone receptors (Thyroid hormone receptors, THRs), which in turn modulate the expression of numerous target genes. Therefore, the expression of target gene in liver and heart can be used to determine tissue selective THR activation. PTU induced hypothyroidism SD rats were treated with a single dose of THR agonists, mRNA levels for select THR-responsive genes in liver (DIO1) and heart tissue (α-MHC) were measured at 24h (FIG. 1), with ED50 and Emax shown in Table 27 below.
Male SD rats (˜180 g) were housed 3 per cage under standard vivarium conditions and were fed a normal chow diet for 5˜7 days of acclimation. […] PTU were administered via drinking water to a final concentration of 0.05% (0.05g/100 ml water) for all PTU groups for 18 days. At ˜[…] of day 17, the body weight of rats was recorded, and then animals were administered via intraperitoneal injection or gavage of compounds at indicated dosages. At 24h after compound dosing, rats will be euthanized by CO2 inhaling, and liver and heart were collected for gene expression analysis. RNA was extracted from each tissue and was used for first strand cDNA with iScript cDNA Synthesis reagents (Biorad, #1708891).

T2 sequence (P10827 163-410 isoform P10827-2 limits assumed, other chains not shown): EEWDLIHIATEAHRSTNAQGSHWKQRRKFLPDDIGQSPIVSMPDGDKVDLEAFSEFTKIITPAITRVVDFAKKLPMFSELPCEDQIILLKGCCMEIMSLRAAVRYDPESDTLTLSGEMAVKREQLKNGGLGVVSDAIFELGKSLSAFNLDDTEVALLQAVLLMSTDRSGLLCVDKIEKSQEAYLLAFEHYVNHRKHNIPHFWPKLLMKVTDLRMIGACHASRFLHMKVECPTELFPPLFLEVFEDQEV

Row | THRβ Emax (THR beta-LBD) | EC50 (THR beta-LBD) [µM] | THRα Emax (THR alpha-LBD) | EC50 (THR alpha-LBD) [µM] | SMILES | Liver DIO1 Emax* (DIO1 mRNA in liver) [%]
1 | A (90~110) | < 0.002 | A (85~110) | < 0.002 | O=c1[nH]c(=O)n(-c2cc(Cl)c(Cc3ccc(O)c(S(=O)(=O)NC4CS(=O)(=O)C4)c3)c(Cl)c2)nc1C(F)F [Compound 152, 5-[[2,6-dichloro-4-[6-(difluoromethyl)-3,5-dioxo-1,2,4-triazin-2-yl]phenyl]methyl]-N-(1,1-dioxothietan-3-yl)-2-hydroxy-benzenesulfonamide] | 
2 | A (90~110) | < 0.002 | A (85~110) | 0.002 to 0.2 | O=c1[nH]c(=O)n(-c2cc(Cl)c(Oc3cc(S(=O)(=O)C4CCC4)c(O)cn3)c(Cl)c2)nc1C(F)F [Compound 153, 2-[3,5-dichloro-4-[(4-cyclobutylsulfonyl-5-hydroxy-2-pyridyl)-oxy]phenyl]-6-(difluoromethyl)-1,2,4-triazine-3,5-dione] | 
3 | B (75~90) | 0.002 to 0.02 | B (40~85) | 0.2 to 1 | CS(=O)(=O)Cc1cc(Oc2c(Cl)cc(-n3nc(C(F)F)c(=O)[nH]c3=O)cc2Cl)ncc1O [Compound 154, 2-[3,5-dichloro-4-[[5-hydroxy-4-(methylsulfonylmethyl)-2-pyridyl]oxy]phenyl]-6-(difluoromethyl)-1,2,4-triazine-3,5-dione] | 
4 | A (90~110) | 0.002 to 0.02 | B (40~85) | > 1 | O=c1[nH]c(=O)n(-c2cc(Cl)c(Cc3cc(S(=O)(=O)N[C@H]4C[C@H](O)C4)c(O)cn3)c(Cl)c2)nc1C(F)F [Compound 156, 2-(2,6-dichloro-4-(6-(difluoromethyl)-3,5-dioxo-4,5-dihydro-1,2,4-triazin-2 (3H)-yl)benzyl)-5-hydroxy-N-((1r,3r)-3-hydroxycyclobutyl)pyridine-4-sulfonamide] | 
5 | A (90~110) | < 0.002 | A (85~110) | 0.002 to 0.2 | O=c1[nH]c(=O)n(-c2cc(Cl)c(Oc3cc(S(=O)(=O)NC4COC4)c(O)cn3)c(Cl)c2)nc1C(F)F [Compound 158, 2-(2,6-dichloro-4-(6-(difluoromethyl)-3,5-dioxo-4,5-dihydro-1,2,4-triazin-2(3H)-yl)phenoxy)-5-hydroxy-N-(oxetan-3-yl)pyridine-4-sulfonamide] | 
6 | B (75~90) | 0.02 to 0.1 | B (40~85) | 0.2 to 1 | O=c1[nH]c(=O)n(-c2cc(Cl)c(Oc3cc(S(=O)(=O)NC45CCC(O)(C4)C5)c(O)cn3)c(Cl)c2)nc1C(F)F [Compound 159, 2-(2,6-dichloro-4-(6-(difluoromethyl)-3,5-dioxo-4,5-dihydro-1,2,4-triazin-2(3H)-yl)phenoxy)-5-hydroxy-N-(4-hydroxybicyclo[2.1.1]hexan-1-yl)pyridine-4-sulfonamide] | 
7 | B (75~90) | 0.02 to 0.1 | B (40~85) | > 1 | O=c1[nH]c(=O)n(-c2cc(Cl)c(Oc3cc(S(=O)(=O)NC45CCC(O)(CC4)C5)c(O)cn3)c(Cl)c2)nc1C(F)F [Compound 160, 2-(2,6-dichloro-4-(6-(difluoromethyl)-3,5-dioxo-4,5-dihydro-1,2,4-triazin-2(3H)-yl)phenoxy)-5-hydroxy-N-(4-hydroxybicyclo[2.2.1]heptan-1-yl)pyridine-4-sulfonamide] | 
8 | B (75~90) | 0.02 to 0.1 | B (40~85) | 0.2 to 1 | Cc1nn(-c2cc(Cl)c(Oc3cc(S(=O)(=O)N[C@H]4C[C@H](O)C4)c(O)cn3)c(Cl)c2)c(=O)[nH]c1=O [Compound 161, 2-(2,6-dichloro-4-(6-methyl-3,5-dioxo-4,5-dihydro-1,2,4-triazin-2(3H)-yl)phenoxy)-5-hydroxy-N-((1r,3r)-3-hydroxycyclobutyl)pyridine-4-sulfonamide] | 
9 | B (75~90) | > 0.1 | C (<40) | > 1 | Cc1nn(-c2cc(Cl)c(Oc3cc(S(=O)(=O)N[C@H]4C[C@@H](O)C4)c(O)cn3)c(Cl)c2)c(=O)[nH]c1=O [Compound 162, 2-(2,6-dichloro-4-(6-methyl-3,5-dioxo-4,5-dihydro-1,2,4-triazin-2(3H)-yl)phenoxy)-5-hydroxy-N-((1s,3s)-3-hydroxycyclobutyl)pyridine-4-sulfonamide] | 
10 | B (75~90) | 0.02 to 0.1 | B (40~85) | 0.2 to 1 | Cc1nn(-c2cc(Cl)c(Oc3cc(S(=O)(=O)N[C@@H]4CCOC4)c(O)cn3)c(Cl)c2)c(=O)[nH]c1=O [Compound 163, (R)-2-(2,6-dichloro-4-(6-methyl-3,5-dioxo-4,5-dihydro-1,2,4-triazin-2(3H)-yl)phenoxy)-5-hydroxy-N-(tetrahydrofuran-3-yl)pyridine-4-sulfonamide] | 
11 | B (75~90) | 0.02 to 0.1 | B (40~85) | 0.2 to 1 | Cc1nn(-c2cc(Cl)c(Oc3cc(S(=O)(=O)N[C@H]4CCOC4)c(O)cn3)c(Cl)c2)c(=O)[nH]c1=O [Compound 164, (S)-2-(2,6-dichloro-4-(6-methyl-3,5-dioxo-4,5-dihydro-1,2,4-triazin-2(3H)-yl)phenoxy)-5-hydroxy-N-(tetrahydrofuran-3-yl)pyridine-4-sulfonamide] | 
12 | C (<75) | 0.02 to 0.1 | B (40~85) | > 1 | O=c1cnn(-c2cc(Cl)c(Oc3cc(S(=O)(=O)N[C@H]4C[C@H](O)C4)c(O)cn3)c(Cl)c2)c(=O)[nH]1 [Compound 165, 2-(2,6-dichloro-4-(3,5-dioxo-4,5-dihydro-1,2,4-triazin-2(3H)-yl)phenoxy)-5-hydroxy-N-((1r,3r)-3-hydroxycyclobutyl)pyridine-4-sulfonamide] | 
13 | B (75~90) | > 0.1 | B (40~85) | > 1 | Cc1cc(-n2nc(C(F)F)c(=O)[nH]c2=O)cc(C)c1Oc1cc(S(=O)(=O)N[C@H]2C[C@H](O)C2)c(O)cn1 [Compound 166, 2-[4-[6-(difluoromethyl)-3,5-dioxo-1,2,4-triazin-2-yl]-2,6-dimethyl-phenoxy]-5-hydroxy-N-(3-hydroxycyclobutyl)pyridine-4-sulfonamide] | 
14 | A (90~110) | 0.002 to 0.02 | A (85~110) | 0.2 to 1 | Cc1cc(-n2nc(C(F)F)c(=O)[nH]c2=O)cc(Cl)c1Oc1cc(S(=O)(=O)N[C@H]2C[C@H](O)C2)c(O)cn1 [Compound 167, 2-[2-chloro-4-[6-(difluoromethyl)-3,5-dioxo-1,2,4-triazin-2-yl]-6-methyl-phenoxy]-5-hydroxy-N-(3-hydroxycyclobutyl)pyridine-4-sulfonamide] | 
15 | A (90~110) | 0.002 to 0.02 | A (85~110) | 0.002 to 0.2 | C[C@]1(NS(=O)(=O)c2cc(Oc3c(Cl)cc(-n4nc(C(F)F)c(=O)[nH]c4=O)cc3Cl)ncc2O)C[C@H](O)C1 [Compound 168, 2-[2,6-dichloro-4-[6-(difluoromethyl)-3,5-dioxo-1,2,4-triazin-2-yl]phenoxy]-5-hydroxy-N-(3-hydroxy-1-methyl-cyclobutyl)pyridine-4-sulfonamide] | 
16 | C (<75) | > 0.1 | C (<40) | > 1 | CN1CC(NS(=O)(=O)c2cc(Oc3c(Cl)cc(-n4nc(C(F)F)c(=O)[nH]c4=O)cc3Cl)ncc2O)C1 [Compound 169, 2-(2,6-dichloro-4-(6-(difluoromethyl)-3,5-dioxo-4,5-dihydro-1,2,4-triazin-2(3H)-yl)phenoxy)-5-hydroxy-N-(1-methylazetidin-3-yl)pyridine-4-sulfonamide] | 
17 |  |  |  |  | N[C@@H](Cc1cc(I)c(Oc2ccc(O)c(I)c2)c(I)c1)C(=O)O [Compound T3, reference compound] | 100
